# Data as given in patent publication US11174254B2, “Aniline-substituted 1,2-dihydropyrrol[3,4-C]pyridin/pyrimidin-3-one derivative and use thereof” (SHANGHAI HAIYAN PHARMACEUTICAL TECHNOLOGY CO., LTD., priority 2017, dated 2021).
# Assays:
# [1] = target: wild-type EGFR kinase (Homo sapiens (Human), UniProt P00533); experiment: Wild type EGFR kinase inhibition test (z-lyte); format: biochemical; conditions: wild-type EGFR kinase Invitrogen PV3872, Tyr04 substrate, read-out: EGFR WT IC50
# Excerpt: All the following reagents used in z-lyte test are commercially available from Invitrogen.
# The calculation method for the inhibition ratio (referring to the instruction of PV3363, Invitrogen) was as follows: ER=Coumarin Emission (450 nm)/Fluorescein Emission (520 nm) 1. Phosphorylation ratio=(1−((ER×C3520 nm−C3450 nm)/((C1450 nm−C3450 nm)+ER×(C3520 nm−C1520 nm))))×100% 2. Inhibition ratio (IR)=(1-phosphorylation ratio of the test compound)/(phosphorylation ratio of C2))×100% 3.
# The half-inhibitory concentration IC50 was calculated by fitting with XLFIT 5.0 software (IDBS, UK).
# [2] = target: BTK WT (Homo sapiens (Human), UniProt Q06187); experiment: Lantha Screening Kinase Reaction Assay; format: biochemical; conditions: for IC50: TR-FRET LanthaScreen, kinase Invitrogen PV3363, 60 min at 25° C.; for inhibitory activity against enzyme (BTK WT), in words: comment on table 1, G-12 and G-17 compared with G-2
# Sequence of BTK WT (Q06187 whole entry): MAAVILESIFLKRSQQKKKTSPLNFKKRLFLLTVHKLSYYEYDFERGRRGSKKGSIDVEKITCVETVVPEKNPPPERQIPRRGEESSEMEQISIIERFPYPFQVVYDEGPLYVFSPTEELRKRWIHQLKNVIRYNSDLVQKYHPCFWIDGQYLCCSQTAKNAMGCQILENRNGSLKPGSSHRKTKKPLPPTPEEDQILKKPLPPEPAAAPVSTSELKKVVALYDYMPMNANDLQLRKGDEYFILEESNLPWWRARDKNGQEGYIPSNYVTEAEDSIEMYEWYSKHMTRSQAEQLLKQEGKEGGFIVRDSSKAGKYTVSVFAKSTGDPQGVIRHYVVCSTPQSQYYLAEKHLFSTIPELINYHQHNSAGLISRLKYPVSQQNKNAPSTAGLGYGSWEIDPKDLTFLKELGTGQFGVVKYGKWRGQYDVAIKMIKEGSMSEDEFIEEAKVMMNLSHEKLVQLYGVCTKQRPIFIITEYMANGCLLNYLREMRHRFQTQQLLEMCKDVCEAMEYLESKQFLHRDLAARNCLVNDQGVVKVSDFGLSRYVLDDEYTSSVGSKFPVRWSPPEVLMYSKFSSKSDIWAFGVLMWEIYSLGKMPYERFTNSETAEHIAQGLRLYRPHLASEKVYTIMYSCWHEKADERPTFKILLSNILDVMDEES
# Method: The compound was predissolved in 100% DMSO.10 mM drug stock solution was obtained by dissolution at room temperature and then gradiently diluted with 8 vol % DMSO solution to a final concentration of 10-0.005 μM. 2.5 μl of a solution of substance to be tested and 2.5 μl of kinase (Invitrogen PV3363) diluted with the reaction buffer were added into each well of 384-well plate (Corning 3676), and then the mixture of Fluososcei-PolyGT (Invitrogen PV3610) substrate and ATP (Invitrogen PV3227) diluted with 5 μl of the reaction buffer were added to initiate the reaction. Among the wells, the kinase in the blank well was replaced with a reaction buffer and the kinase well (Enzyme) was not added with any drug. […] The plates were read on a VictorX5 fluorescent plate reader (PerkinElmer) and the light absorption at an excitation wavelength of 340 nm and emission wavelengths of 500 nm and 520 nm was measured.
# 2. The half-inhibitory concentration IC50 was calculated by fitting with XLFIT 5.0 software (IDBS, UK).
# [3] = target: βBTK Y223 (Ramos cells) (Homo sapiens (Human), UniProt Q06187); experiment: HTRF method for detecting intracellular βBTK Y223 phosphorylation; format: cell-based; conditions: 1 hour compound incubation, sodium pervanadate stimulation
# Sequence of βBTK Y223 (Ramos cells) (Q06187 whole entry): as above
# Method: The compound was predissolved in 100% DMSO. 10 mM drug stock solution was obtained by dissolution at room temperature and then gradiently diluted with 5 vol % DMSO solution to a final concentration of 3-0.0014 μM. Ramos cells were seeded into a 96-well plate at a density of 4×10^5/well with 45 μl of 1640 medium containing 10% (V/V) FBS per well, and 5 μl of diluted solution of substance to be tested was added to each well. Incubation was performed for 1 hour at 37° C., 5% (V/V) CO2. 10 μl of sodium pervanadate dilution (diluted with 1640 without serum) was added, and 10 μl of serum-free medium was added to the negative control wells. Incubation was performed at 25° C. for 30 minutes on a shaker. 20 μl of lysate (4× lysate: blocked mother liquor is equal to 25:1) was added to each well and incubated for 30 minutes at 25° C. on a shaker. The 96-well plate was shaken on an oscillator at 800 rpm for 1 minute. 16 μl of cell lysate was added to a 384-well plate (Greiner 784075), and 4 μl of pre-mixed antibody solution (Phospho-BTK d2 antibody and Phospho-BTK Cryptate antibody diluted 20-fold with the test solution) was added. Incubation was performed at 25° C. overnight on a shaker. The plate was read on a VictorX5 fluorescent plate reader (PerkinElmer) and the light absorption at an excitation wavelength of 317 nm and emission wavelengths of 500 nm and 520 nm was measured (referring to the instruction of 63ADK017PEH, Cisbio). The half-inhibitory concentration IC50 was calculated by fitting with XLFIT 5.0 software (IDBS, UK).
# Sequence of wild-type EGFR kinase (P00533 25-1210): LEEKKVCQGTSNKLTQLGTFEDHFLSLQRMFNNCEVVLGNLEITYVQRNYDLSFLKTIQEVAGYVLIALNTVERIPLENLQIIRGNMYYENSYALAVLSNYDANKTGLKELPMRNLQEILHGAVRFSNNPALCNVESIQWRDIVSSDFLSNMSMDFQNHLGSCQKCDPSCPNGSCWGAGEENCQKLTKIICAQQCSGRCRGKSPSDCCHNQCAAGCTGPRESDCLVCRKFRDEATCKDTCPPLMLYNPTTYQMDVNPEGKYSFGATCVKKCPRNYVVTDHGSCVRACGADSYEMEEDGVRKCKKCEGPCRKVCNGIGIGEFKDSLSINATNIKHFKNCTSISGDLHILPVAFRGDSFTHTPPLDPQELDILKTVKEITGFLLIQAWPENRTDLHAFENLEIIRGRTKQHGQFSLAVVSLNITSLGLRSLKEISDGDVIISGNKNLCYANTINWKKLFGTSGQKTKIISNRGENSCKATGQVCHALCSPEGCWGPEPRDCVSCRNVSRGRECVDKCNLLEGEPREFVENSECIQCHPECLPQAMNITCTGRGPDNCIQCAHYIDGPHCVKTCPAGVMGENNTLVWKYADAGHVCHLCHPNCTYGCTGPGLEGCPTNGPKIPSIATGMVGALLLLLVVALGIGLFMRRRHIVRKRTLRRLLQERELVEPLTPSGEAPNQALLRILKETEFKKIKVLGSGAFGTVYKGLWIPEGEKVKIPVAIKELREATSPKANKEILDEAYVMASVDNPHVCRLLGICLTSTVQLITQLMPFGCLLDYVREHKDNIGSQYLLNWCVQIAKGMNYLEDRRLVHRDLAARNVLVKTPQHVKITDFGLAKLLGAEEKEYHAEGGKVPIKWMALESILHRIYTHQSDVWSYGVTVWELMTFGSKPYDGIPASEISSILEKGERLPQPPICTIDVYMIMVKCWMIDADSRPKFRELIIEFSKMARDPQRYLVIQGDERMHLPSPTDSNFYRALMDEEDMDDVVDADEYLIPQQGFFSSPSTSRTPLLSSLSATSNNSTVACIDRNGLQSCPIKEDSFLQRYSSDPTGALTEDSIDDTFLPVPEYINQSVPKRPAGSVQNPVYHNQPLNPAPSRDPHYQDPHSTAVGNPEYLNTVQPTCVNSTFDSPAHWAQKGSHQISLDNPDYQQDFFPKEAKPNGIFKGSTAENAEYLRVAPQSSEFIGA
SMILES,IC50 [1],IC50 [2],IC50 [3],"inhibitory activity against enzyme (BTK WT), in words [2]"
"C=CC(=O)Nc1cccc(Nc2nc(Nc3ccc(OCCOC)cc3)c3c(c2F)C(C)NC3=O)c1 (stereo not drawn) [Compound G-1, N-(3-((7-fluoro-4-((4-(2-methoxyethoxy)phenyl)amino)-1-methyl-3-oxo-2,3-dihydro-1H-pyrrolo[3,4-C]pyridin-6-yl)amino)phenyl)acrylamide]",9.27 µM,0.141 µM,–,–
"C=CC(=O)Nc1cccc(Nc2nc3c(c(Nc4ccc(OCCOC)cc4)n2)C(=O)NC3)c1 [Compound G-2, N-(3-(4-(4-(2-methoxyethoxy)phenylamino)-5-oxo-6.7-dihydro-5H-pyrrolo[3,4-d]pyrimidin-2-ylamino)phenyl)acrylamide]",4.69 µM,0.025 µM,0.043 µM,–
"C=CC(=O)Nc1cccc(Nc2nc(Nc3ccc(OCCOC)cc3)c3c(c2F)CNC3=O)c1 [Compound G-3, N-(3-(7-fluoro-4-(4-(2-methoxyethoxy)phenylamino)-3-oxo-2,3-dihydro-1H-pyrrolo[3,4-c]pyridin-6-ylamino)phenyl)acrylamide]",> 10 µM,0.058 µM,0.106 µM,–
"C=CC(=O)Nc1cccc(Nc2nc(Nc3ccc(N4CCN(CC(C)O)CC4)cc3)c3c(c2F)CNC3=O)c1 (stereo not drawn) [Compound G-4, N-(3-(7-fluoro-4-(4-(4-(2-hydroxypropyl)piperazin-1-yl)phenylamino)-3-oxo-2,3-dihydro-1H-pyrrolo[3,4c]pyridin-6-ylamino)phenyl)acrylamide]",3 µM,0.01 µM,0.006 µM,–
"C=CC(=O)Nc1cccc(Nc2nc(Nc3ccc(OCCOC)cc3)c3c(c2F)C(C)(C)NC3=O)c1 [Compound G-5, N-(3-(7-fluoro-4-(4-(2-methoxyethoxy)phenylamino)-1,1-dimethyl-3-oxo-2,3-dihydro-1H-pyrrolo[3,4-c]pyridin-6-ylamino)phenyl)acrylamide]",–,0.156 µM,–,–
"C=CC(=O)Nc1cccc(Nc2nc3c(c(Nc4ccccc4)n2)C(=O)NC3)c1 [Compound G-6, N-(3-(5-oxo-4-(phenylamino)-6,7-dihydro-5H-pyrrolo[3,4-d]pyrimidin-2-ylamino)phenyl)acrylamide]",3 µM,0.014 µM,0.02 µM,–
"C=CC(=O)Nc1cccc(Nc2nc3c(c(Nc4cnn(C5CCOCC5)c4)n2)C(=O)NC3)c1 [Compound G-7, N-(3-(5-oxo-4-(1-(tetrahydro-2H-pyran-4-yl)-1H-pyrazol-4-ylamino)-6,7-dihydro-5H-pyrrolo[3,4d]pyrimidin-2-ylamino)phenyl)acrylamide]",6.99 µM,0.019 µM,0.111 µM,–
"C=CC(=O)Nc1cccc(Nc2nc3c(c(Nc4cnn(C)c4)n2)C(=O)NC3)c1 [Compound G-8, N-(3-(4-(1-methyl-1H-pyrazol-4-ylamino)-5-oxo-6,7-dihydro-5H-pyrrolo[3,4-d]pyrimidin-2-ylamino)phenyl)acrylamide]",6.42 µM,0.009 µM,0.036 µM,–
"C=CC(=O)Nc1cccc(Nc2nc3c(c(Nc4cnn(CC(C)(C)O)c4)n2)C(=O)NC3)c1 [Compound G-9, N-(3-(4-(1-(2-hydroxyl-2-methylpropyl)-1H-pyrazol-4-ylamino)-5-oxo-6,7-dihydro-5H-pyrrolo[3,4-d]pyrimidin-2-ylamino)phenyl)acrylamide]",5.03 µM,0.055 µM,0.082 µM,–
"C=CC(=O)Nc1cccc(Nc2cc3c(c(Nc4ccc(OCCOC)cc4)n2)C(=O)NC3)c1 [Compound G-10, N-(3-(4-(4-(2-methoxyethoxy)phenylamino)-3-oxo-2,3-dihydro-1H-pyrrolo[3,4-c]pyridin-6-ylamino)phenyl)acrylamide]",> 10 µM,0.068 µM,0.164 µM,–
"C=CC(=O)Nc1cccc(Nc2nc3c(c(-c4cnn(C)c4)n2)C(=O)NC3)c1 [Compound G-11, N-(3-(4-(1-methyl-1H-pyrazol-4-yl)-5-oxo-6,7-dihydro-5H-pyrrolo[3,4-d]pyrimidin-2-ylamino)phenyl)acrylamide]",> 10 µM,0.048 µM,0.004 µM,–
"C=CC(=O)Nc1cccc(Nc2nc3c(c(Oc4ccc(OCCOC)cc4)n2)C(=O)NC3)c1 [Compound G-12, N-(3-((4-(4-(2-methoxyethoxy)phenoxyl)-5-oxo-6,7-dihydro-5H-pyrrolo[3,4-d]pyrimidin-2-yl)amino)phenyl)acrylamide]",1.53 µM,1.35 µM,–,significantly reduced
C=CC(=O)Nc1cccc(Nc2nc3c(c(Nc4cnn(C5CC5)c4)n2)C(=O)NC3)c1 [Compound G-13],3.08 µM,0.063 µM,0.081 µM,–
C=CC(=O)Nc1cccc(Nc2nc3c(c(Nc4cnn(CCOC)c4)n2)C(=O)NC3)c1 [Compound G-14],2.69 µM,0.059 µM,0.103 µM,–
C=CC(=O)Nc1cccc(Nc2nc3c(c(Nc4ccc(N5CCOCC5)cc4)n2)C(=O)NC3)c1 [Compound G-15],4.26 µM,0.052 µM,0.036 µM,–
C=CC(=O)N(CC)c1cccc(Nc2nc3c(c(Nc4ccc(N5CCN(C6COC6)C[C@@H]5C)cc4)n2)C(=O)NC3)c1 [Compound G-16],5.68 µM,0.044 µM,0.062 µM,–
C=CC(=O)Nc1cccc(Nc2nc3c(c(N(C)c4ccc(OCCOC)cc4)n2)C(=O)NC3)c1 [Compound G-17],> 10 µM,> 10 µM,–,significantly lowered
